# How the values were obtained:
# [1] = test system: MEFs during reprogramming; assay: Alkaline phosphatase (AP)+ colony formation during reprogramming; format: cell-based, mouse; conditions: molecule applied during reprogramming
# [2] = test system: 4F-transduced Oct4-GFP MEFs; assay: Kinase inhibitor treatment of 4F-transduced Oct4-GFP MEFs, Oct4-GFP+ colony count (reprogramming efficiency); format: cell-based, mouse; conditions: for reprogramming, Oct4-GFP+ colonies, dose/response: 0.5 μM, drug from day 3, colonies at day 13; for reprogramming, Oct4-GFP+ colonies: secondary screen; for iPSC generation in non-permissive conditions: 4F expression too low to reprogram vehicle-treated MEFs, GFP+ colonies at day 12-13; for iPSC generation when p53 is silenced by shRNA: 4F plus p53 shRNA, inhibitor from day 3, GFP+ colonies at day 12
# Experimental: MEFs were cultured in DMEM (Invitrogen, 11995-065) with 10% FBS (Invitrogen) plus glutamine and NEAA. Only MEFs at passage of 0 to 4 were used for reprogramming. pMX-Oct4, Sox2, Klf4 and cMyc were purchased from Addgene. […] Viruses were harvested and combined 2 days later. For reprogramming, MEFs were seeded in 12-well plates and transduced with 4F virus the next day with 4 ug/ml Polybrene. One day later, the medium was changed to fresh MEF medium, and 3 days later it was changed to mES culture medium supplemented with LIF (Millipore, ESG1107). GFP+ colonies were picked at day 14 post-transduction, and expanded clones were cultured in DMEM with 15% FBS (Hyclone) plus LIF, thioglycerol, glutamine and NEAA. Irradiated CF1 MEFs served as feeder layers to culture mES cells and derived iPS clones.
# All compounds are well-characterized protein kinase inhibitors. Compounds were diluted to 2 mM in 96-well plates. 4F-transduced cells were seeded into gelatin coated plates (4000 cells/well). Inhibitors were added every other day until day 13. Cells were then fixed with 4% paraformaldehyde for 20 min at room temperature and number of Oct4-GFP+ colonies was directly counted under a microscope. Cells were then stained with Vector red alkaline phosphatase substrate kit I™ (Vector laboratories, SK5100).
# To define signaling mechanisms underlying reprogramming, a double-blind screen of 244 well-characterized cell-permeable protein kinase inhibitors was undertook to identify kinases that enhance or inhibit the process. Mouse embryonic fibroblasts from a transgenic line in which GFP expression is driven by the endogenous Oct4 promoter were chosen as the starting material for a reporter cell line of somatic cell reprogramming. Fully reprogrammed cells switch on endogenous Oct4 expression, making resultant iPS colonies GFP-positive and enabling quantification of reprogramming efficiency. To minimize well-to-well variation, MEFs were first transduced with 4F factors in bulk (FIG. 9A) and then reseeded at 3000 cells/well into gelatin-coated 96-well plates before inhibitor treatment. Starting at day 3 post-transduction, inhibitors were added at a final concentration of 2 μM and media were refreshed every other day with mES culture medium plus inhibitor. At day 13 post-transduction, plates were fixed in 4% paraformaldehyde and GFP-positive colonies were directly quantified microscopically.
# Two columns of wells from each plate (columns 1 and 12) were treated with DMSO (vehicle) only and served as controls.
# GSK3β = assay: Western blotting of phospho- and total GSK3β; format: cell-based, mouse; conditions: 4F-infected MEFs
# Experimental: 4F-infected MEFs were treated with different doses of B6 inhibitor starting at day 3 post-infection for 48 hrs before being harvested for western blotting analysis.
# The experiment was the same as FIG. 5C. Actin served as the loading control.
# 4F-infected MEFs were treated with 1 μM each of Akt inhibitor (Akt X) and B6.
# Membranes were blocked with 5% milk in TBST for at least 1 hr at room temp or overnight at 4° C.
# Aurora A kinase = assay: Western blotting of Aurora A kinase protein; format: cell-based, mouse; conditions: wild type and 4F-infected MEFs (B6 1 μM, 2 days); 4F-infected MEFs (MLN8237, 48 hrs)
# Experimental: FIGS. 13A-13h are a series of graphical representations depicting Aurora A kinase inhibition by B6 promoting Akt mediated inactivation of GSK3β. FIG. 13A is a western blot showing B6 treatment increases aurora A kinase protein levels. Both 4F-infected (day 3) and mock MEFs were treated with 1 μM B6 for 2 days and cells were harvested for western blotting of Aurora A kinase. Actin served as loading control.
# Cells were harvested 48 hrs after drug treatment for western blotting analysis of AurkA protein. Actin serves as loading control.
# Western blotting: Total cell lysates were prepared by incubating cells in MPER buffer (PIERCE, 78503) on ice for 20 min, and then cleared by centrifugation at 13,000 rpm for 10 min. An equal volume of lysates was loaded onto 10% SDS-PAGE gels, and proteins were transferred to PVDF membranes (Bio-Rad, 1620177) using the semi-dry system (Bio-Rad). Membranes were blocked with 5% milk in TBST for at least 1 hr at room temp or overnight at 4° C. Antibodies used include: anti-mNanog (R&D, AF2729), anti-h/mSSEA1 (R&D, MAB2156), anti-Actin (Thermo, MS1295P0), anti-AFP (Abcam, ab7751), anti-Beta III tubulin (R&D systems, MAB1368), and anti-alpha actinin (Sigma, A7811), anti-mAurkA (Bethyl lab, A300-072A), anti-hAurkA (Bethyl lab, A300-071A), total-GSK3β (Cell signaling technology, 9315S), phospho-GSK3β (Cell Signaling Technology, 9323S).
# Aurora A kinase mRNA = assay: RT-qPCR of Aurora A kinase mRNA; format: cell-based, mouse; conditions: 4F-infected MEFs, 1 μM, 2 days
# Experimental: MEFs were infected with 4F for 3 days and treated under mock conditions or with DMSO or 1 μM B6 for 2 days prior to RT-qPCR analysis of total RNA.
# (§1) mRNA quantitative PCR: Total RNAs were extracted using Trizol (Invitrogen). After extraction, 1 ug total RNA was used for RT using Superscript II™ (Invitrogen). Quantitative PCR was performed using a Roche LightCycler480™ II and the Sybr green mixture from Abgene (Ab-4166). Other primers were previously described (Takahashi et al. 2006 Cell 126:663-76).
# 4F-infected MEFs [3] = assay: Cell cycle analysis, PI staining and flow cytometry; format: cell-based, mouse; conditions: for cell cycle progression: various concentrations, 48 hr
# Experimental: FIG. 24A is a series of images of DNA analysis by flow cytometry. 4F-infected MEFs were treated with different concentrations of B6 at day 3 post-infection. Cells were harvested after 48 hr of drug treatment, subjected to PI staining and analyzed for DNA content by flow cytometry.
# FIG. 24B is a series of images of DNA analysis by flow cytometry. […] The experimental procedure was as in FIG. 24A.
# Cell cycle analysis: MEFs or 4F-infected MEFs were treated with inhibitors for two days and then harvested and trypsinized before fixing in 75% ethanol overnight. Cells were centrifuged at 1000 rpm for 5 min, washed once with PBS, and treated with PI staining solution for at least 30 min at room temperature before flow cytometry analysis. ˜20000 events per sample were collected per analysis and cell cycle data was modeled using ModFit™.
# Pdk1, Src, Pten and p85α = assay: RT-qPCR of genes upstream of Akt; format: cell-based, mouse; conditions: MEFs transduced with 4F for three days, then 1 μM for two days
# Experimental: FIG. 22, is a graph plotting relative mRNA levels in MEFs. […] MEFs were first transduced with 4F for three days and then treated for another two days with DMSO or 1 μM B6. Total RNAs were harvested and analyzed for indicated factors, which reportedly function upstream of Akt.
# as §1
# mES cells = assay: mES cell self-renewal and differentiation in LIF+ and LIF− conditions; format: cell-based, mouse; conditions: 0.5 μM and 1 μM, 4 days
# Description: Cells were harvested for RNA extraction and RT-qPCR of indicated mES self-renewal genes.
# LIF withdrawal in both B6-treated and DMSO control cells promoted mES cell differentiation, as indicated by loss of colonies, based on morphology and AP staining (data not shown).
# Cdk2/E = Cdk2/E (Homo sapiens, UniProt P24941); conditions: read-out: Potential Targets: Cdk2/E, IC50; cited from earlier work
# Cdk1/B = Cdk1/B (Homo sapiens, UniProt P06493); conditions: read-out: Potential Targets: Cdk1/B, IC50; cited from earlier work
# Cdk1/B, sequence (P06493 whole entry, species assumed): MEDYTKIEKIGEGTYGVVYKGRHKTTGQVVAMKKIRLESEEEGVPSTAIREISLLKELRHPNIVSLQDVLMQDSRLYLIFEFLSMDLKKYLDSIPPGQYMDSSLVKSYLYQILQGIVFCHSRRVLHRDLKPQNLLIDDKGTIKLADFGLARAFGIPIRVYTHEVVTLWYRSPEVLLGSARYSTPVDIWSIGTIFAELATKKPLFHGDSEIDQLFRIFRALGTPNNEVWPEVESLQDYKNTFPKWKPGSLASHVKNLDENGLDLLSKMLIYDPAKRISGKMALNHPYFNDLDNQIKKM
# Cdk1/B, sequence (P14635 whole entry partner, species assumed): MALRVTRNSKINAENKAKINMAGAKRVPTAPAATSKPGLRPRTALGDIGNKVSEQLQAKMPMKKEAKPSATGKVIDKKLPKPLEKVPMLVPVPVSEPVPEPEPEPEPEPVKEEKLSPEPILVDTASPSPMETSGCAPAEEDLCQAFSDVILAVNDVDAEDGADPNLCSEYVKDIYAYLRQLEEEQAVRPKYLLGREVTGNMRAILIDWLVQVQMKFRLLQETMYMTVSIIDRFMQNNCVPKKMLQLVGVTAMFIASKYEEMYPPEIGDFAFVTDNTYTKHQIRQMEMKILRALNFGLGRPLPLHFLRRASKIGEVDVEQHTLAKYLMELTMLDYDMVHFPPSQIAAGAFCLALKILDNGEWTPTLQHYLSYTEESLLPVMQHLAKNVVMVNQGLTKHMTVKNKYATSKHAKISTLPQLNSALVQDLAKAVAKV
# Cdk3/E = Cdk3/E (Homo sapiens, UniProt Q00526); conditions: read-out: Potential Targets: Cdk3/E, IC50; cited from earlier work
# Cdk5/p35 = Cdk5/p35 (Homo sapiens, UniProt Q00535); conditions: read-out: Potential Targets: Cdk5/p35, IC50; cited from earlier work
# Cdk5/p35, sequence (Q00535 whole entry, species assumed): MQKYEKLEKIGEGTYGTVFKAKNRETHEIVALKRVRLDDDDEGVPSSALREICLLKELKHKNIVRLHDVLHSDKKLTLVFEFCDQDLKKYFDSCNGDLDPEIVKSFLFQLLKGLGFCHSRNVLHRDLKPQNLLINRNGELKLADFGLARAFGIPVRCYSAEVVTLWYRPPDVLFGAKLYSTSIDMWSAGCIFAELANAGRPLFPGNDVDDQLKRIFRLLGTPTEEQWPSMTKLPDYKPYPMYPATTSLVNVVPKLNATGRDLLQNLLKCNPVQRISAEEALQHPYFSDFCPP
# Cdk5/p35, sequence (Q15078 whole entry partner, species assumed): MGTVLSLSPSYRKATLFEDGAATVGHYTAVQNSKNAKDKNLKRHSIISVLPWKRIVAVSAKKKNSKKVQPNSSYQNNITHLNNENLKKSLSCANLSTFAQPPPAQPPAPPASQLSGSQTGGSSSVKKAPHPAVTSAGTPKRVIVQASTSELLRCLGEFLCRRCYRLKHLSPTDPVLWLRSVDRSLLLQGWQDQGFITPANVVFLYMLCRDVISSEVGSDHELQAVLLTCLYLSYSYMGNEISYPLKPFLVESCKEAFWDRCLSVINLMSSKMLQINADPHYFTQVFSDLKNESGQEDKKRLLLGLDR
# Cdk7/H/MAT1 = Cdk7/H/MAT1 (Homo sapiens, UniProt P50613); conditions: read-out: Potential Targets: Cdk7/H/MAT1, IC50; cited from earlier work
# Cdk7/H/MAT1, sequence (P50613 whole entry, species assumed): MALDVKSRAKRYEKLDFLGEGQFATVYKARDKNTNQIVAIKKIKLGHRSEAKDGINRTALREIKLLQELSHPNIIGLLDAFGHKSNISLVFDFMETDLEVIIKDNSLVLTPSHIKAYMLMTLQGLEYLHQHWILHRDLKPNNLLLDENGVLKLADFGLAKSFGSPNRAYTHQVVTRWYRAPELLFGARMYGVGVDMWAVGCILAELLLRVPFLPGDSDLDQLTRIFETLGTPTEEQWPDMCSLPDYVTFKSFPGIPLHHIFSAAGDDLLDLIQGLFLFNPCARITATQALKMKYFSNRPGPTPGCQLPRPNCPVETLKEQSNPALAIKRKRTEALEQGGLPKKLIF
# Cdk7/H/MAT1, sequence (P51946 whole entry partner, species assumed): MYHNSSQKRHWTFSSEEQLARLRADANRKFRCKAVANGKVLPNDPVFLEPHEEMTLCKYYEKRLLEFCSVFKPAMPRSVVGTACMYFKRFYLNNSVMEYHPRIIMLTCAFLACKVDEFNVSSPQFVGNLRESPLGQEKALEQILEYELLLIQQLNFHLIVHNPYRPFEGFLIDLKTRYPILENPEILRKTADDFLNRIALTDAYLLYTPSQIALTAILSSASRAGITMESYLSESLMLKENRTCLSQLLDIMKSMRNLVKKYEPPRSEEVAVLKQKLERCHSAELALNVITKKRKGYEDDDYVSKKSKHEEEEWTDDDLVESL
# Cdk7/H/MAT1, sequence (P51948 whole entry partner, species assumed): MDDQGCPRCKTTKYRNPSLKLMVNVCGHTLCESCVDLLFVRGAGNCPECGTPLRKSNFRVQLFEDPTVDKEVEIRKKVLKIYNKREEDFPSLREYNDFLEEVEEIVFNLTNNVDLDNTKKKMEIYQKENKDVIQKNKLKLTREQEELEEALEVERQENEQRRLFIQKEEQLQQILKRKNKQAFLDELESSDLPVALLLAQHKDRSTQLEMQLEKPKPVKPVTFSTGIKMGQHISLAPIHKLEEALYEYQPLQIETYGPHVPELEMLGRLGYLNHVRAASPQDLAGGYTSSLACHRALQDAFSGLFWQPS
# 4F-infected MEFs [4] = assay: Cell proliferation assay (Celltiter 96 aqueous), 4F-infected MEFs; format: cell-based, mouse; conditions: 4F-transduced MEFs, 0.5 μM
# Experimental: (§2) MEFs were treated with drugs at 2 μM and proliferation was assayed by using the Celltiter 96™ aqueous method (Promega). Y-axis represents the absorbance at 490 nm to detect formazan, which is converted from MTS tetrazolium by living cells. A higher reading indicates increased cell number. […] Oct4-GFP+ colonies were quantified at day 13.
# (§3) FIG. 16A is a graph plotting relative cell viability. 4F-infected MEFs were seeded in 96-well plates and 0.5 μM of three inhibitors was added at day 3 after transduction (Day 0 in dataset). Proliferation of cells was analyzed every other day using the Celltiter 96™ aqueous method (Promega). FIG. 16B is a graph plotting relative cell viability. […] The experimental procedure is the same as in FIG. 16A.
# (§4) Cell proliferation assay: 3000 MEFs were seeded in each well in 96-well plates and transduced with 4F virus for three days. Cells were then treated with inhibitors at 0.5 μM and harvested every other day. Cells were incubated with mES medium containing Celltiter 96 Aqueous™ one solution (Promega, G3580) for 1 hr in tissue culture incubator. Absorbance at 490 nm was then measured for each well using a plate reader, and data was used to generate relative proliferation curves using the signal from day 3 post-transduction as a reference.
# uninfected MEFs = assay: Cell proliferation assay (Celltiter 96 aqueous), uninfected MEFs; format: cell-based, mouse; conditions: 0.5 μM
# Experimental: as §2, §3, §4
# Nanog, Tet1 and Eras = assay: RT-qPCR of mES-specific genes in 4F-transduced MEFs; format: cell-based, mouse; conditions: day 14 post transduction
# Experimental: Data is derived from analysis of three independent wells. FIG. 23B is a histogram of relative mRNA level. […] Cells were harvested at day 14 post 4F transduction. […] Shown are data derived from three independent wells.
# as §1
# [5] = test system: OSKM-transduced Oct4-EGFP MEFs; assay: OSKM-induced reprogramming with small molecules, GFP+ colonies; format: cell-based, mouse; conditions: treated four days after OSKM transduction for at least 10 days, vs DMSO
# Experimental: All 17 molecules are tested by examining alkaline phosphatase (AP)+ colony formation during reprogramming while these molecules were applied. […] To evaluate their effect on induction of mature GFP+ iPS cells, OSKM-transduced Oct4-EGFP MEFs are treated four days after transduction with each of these factors separately.
# Oct4-EGFP MEFs are transduced with OSKM and four days later treated with individual small molecules for at least 10 days. GFP+ colonies are identified. Error bars represent standard deviations of three independent experiments. *p value<0.05; **p value<0.005.
# [6] = 12-well plates, 2 μM, drug from day 3, colonies at day 13, vs DMSO
compound,measurement,setting,value
4-hydroxytamoxifen,effect on AP+ colony formation,[1],not showing adverse effect on AP+ colony formation
CCN(CC)CCCCN1c2ccccc2Oc2ccc(Cl)cc21 [Akt X],reprogramming,"[2]; 1 μM, triplicate wells",compromises reprogramming
same,GSK3β phosphorylation,GSK3β; 1 μM each of Akt X and B6,diminished
O=C(Nc1cccc(Nc2nccc(Nc3cccc(C(F)(F)F)c3)n2)c1)C1CC1 [BIM-0086660],"reprogramming, Oct4-GFP+ colonies, dose/response",[2],potent enhancers
same,"reprogramming, Oct4-GFP+ colonies","[2]; 1 μM, vs DMSO",enhanced reprogramming more robustly at 1 μM than at 2 μM
same,GSK3β total protein levels,GSK3β; 48 hrs,unchanged
same,phospho-GSK3β,GSK3β; different doses from day 3 post-infection for 48 hrs,significant increase in phospho-GSK3β
same,AurkA protein levels,Aurora A kinase,increased AurkA protein levels relative to untreated cells
same,AurkA mRNA levels,Aurora A kinase mRNA,not significantly altered
same,cell cycle progression,4F-infected MEFs [3],little change in cell cycle progression
same,"expression levels of genes upstream of Akt (Pdk1, Src, Pten, p85α)","Pdk1, Src, Pten and p85α",significant changes were not observed
same,Oct4 expression in mES cells,mES cells,very small increase
same,mES self-renewal or differentiation,mES cells; LIF+ and LIF−,a significant effect on either mES self-renewal (in the presence of LIF) or differentiation (following LIF withdrawal) was not seen
Cc1cccc(-c2[nH]c(C(C)(C)C)nc2-c2ccc3c(c2)OCO3)n1 [BIM-0086716],"reprogramming, Oct4-GFP+ colonies",[2]; [6],consistently and significantly enhanced reprogramming
CC(C)c1nn(-c2c(Cl)cccc2Cl)c2nc(Cc3ccc(OCCO)cc3)[nH]c(=O)c12 [BIM-0086744],IC50,Cdk2/E,9 nM
same,IC50,Cdk1/B,48 nM
same,IC50,Cdk3/E,10 nM
same,IC50,Cdk5/p35,71 nM
same,IC50,Cdk7/H/MAT1,9 nM
O=[N+]([O-])c1ccc(CNc2nc(NCc3cccc(C(F)(F)F)c3)nc3nc[nH]c23)cc1 [BIM-0207164],"reprogramming, Oct4-GFP+ colonies, dose/response",[2],potent enhancers
same,iPSC generation in non-permissive conditions,[2],enhanced iPSC generation even in non-permissive conditions
same,iPSC generation when p53 is silenced by shRNA,[2],equivalent in inhibitor-treated and -untreated conditions
same,"reprogramming, Oct4-GFP+ colonies",[2]; [6],consistently and significantly enhanced reprogramming
same,proliferation,4F-infected MEFs [4],did not significantly promote proliferation
same,proliferation,uninfected MEFs,did not significantly promote proliferation
O=S(=O)(c1c(O)c(Cl)cc(Cl)c1Cl)c1c(O)c(Cl)cc(Cl)c1Cl [BIM-0207174],"reprogramming, Oct4-GFP+ colonies, dose/response",[2],potent enhancers
same,iPSC generation in non-permissive conditions,[2],enhanced iPSC generation even in non-permissive conditions
same,iPSC generation when p53 is silenced by shRNA,[2],equivalent in inhibitor-treated and -untreated conditions
same,"reprogramming, Oct4-GFP+ colonies",[2]; [6],consistently and significantly enhanced reprogramming
same,proliferation,4F-infected MEFs [4],did not significantly promote proliferation
same,proliferation,uninfected MEFs,did not significantly promote proliferation
"COC(=O)[C@H]1[C@H]2C[C@H]3c4[nH]c5ccccc5c4CCN3C[C@@H]2CC[C@@H]1O.Cl [Corynanthine, Corynanthine hydrochloride]",effect on AP+ colony formation,[1],not showing adverse effect on AP+ colony formation
COc1cc(Nc2ncc3c(n2)-c2ccc(Cl)cc2C(c2c(F)cccc2OC)=NC3)ccc1C(=O)O [MLN8237],enhancement of reprogramming,"[2]; 10 nM, from day 3 for 10 days",approximately 4 fold
same,number of GFP+ colonies,[2]; 100 nM,significant increase in the number of GFP+ colonies
same,AurkA protein levels,Aurora A kinase,Increased AurkA protein levels
same,cell cycle,4F-infected MEFs [3]; 10 nM,did not alter the cell cycle
same,number of cells in G2,4F-infected MEFs [3]; 100 nM,increased the number of cells in G2
same,cell cycle progression,4F-infected MEFs [3],little change in cell cycle progression
same,mES-specific gene expression,"Nanog, Tet1 and Eras",increases in mES-specific gene expression
O=C(NCCN1CCOCC1)c1ccc(Cl)cc1 [Moclobemide],effect on AP+ colony formation,[1],not showing adverse effect on AP+ colony formation
COc1ccc2cc(CCC(C)=O)ccc2c1 [Nabumetone],increase in number of reprogrammed colonies,[5],at least 2.8 fold
same,effect on AP+ colony formation,[1],not showing adverse effect on AP+ colony formation

# Source: US9957484B2, “Methods for promoting cell reprogramming” (Sanford-Burnham Medical Research Institute, priority 2011, dated 2018)
